Laboratory results published in US6833358B1, “Lacrimal secretion promoters or eye drops for treating keratoconjunctival failure containing as the active ingredient natriuretic peptides” (Santen Pharmaceutical Co., Ltd., priority 1998, dated 2004).
No end group written: not given here.

Tested on: Male Japanese white rabbits
Experiment: Schirmer test paper method: amount of lacrimal fluid after instillation
Format: in vivo, rabbit
Protocol: The Schirmer test paper method, which is used for measurement of an amount of a human lacrimal fluid, is one method of measuring a change in an amount of a lacrimal fluid of a normal animal in instilling a drug. In the present invention, an amount of a lacrimal fluid in instilling the natriuretic peptide was measured by using the Schirmer test paper method, and an effect of the natriuretic peptide on a rate of lacrimal secretion was studied.
Male Japanese white rabbits, body weight; 1.8 to 2.2 kg, were used for the experiment.
The natriuretic peptide (0.56 mg) was dissolved in sterile purified water to prepare a 0.1% solution just before using. This solution is referred to as a solution of a test drug.
The solution of the test drug (50 μl) was instilled into a left eye once. […]
Amounts of the lacrimal fluid were measured using Schirmer test paper with respect to the eye to which the drug was administered and the eye to which no drug was administered before administering the drug and after a prescribed period of time from the instillation. […] One minute later, length of a wet portion (Schirmer value, mm) of the test paper was measured from the fold. […]
The action of the solution of the test drug on the rate of the lacrimal secretion at a time of T hours after the instillation is represented by the increment of the lacrimal fluid (mm) determined by the following equation. […]

Human CNP-22: C-type natriuretic peptide (human) consisting of 22 amino acids; purchased from Peptide Research Institute (GLSKGCFGLKLDRIGSMSGLGC; ends and bridges not checked; cysteine pairing not given here; UniProt P23582 105-126, looked up)
Increment of lacrimal fluid (mm) (one hour after administering drug, 0.1% solution, 50 μl instilled once into left eye, vehicle-corrected Schirmer value, average of six samples per group): +1.33 mm
effect of promoting the lacrimal secretion (rabbits, instillation, result in words): excellent effects of promoting the lacrimal secretion
